Assay results from paper PMC8949806, “Automated Synthesis of ^68Ga-Labeled DOTA-MGS8 and Preclinical Characterization of Cholecystokinin-2 Receptor Targeting” (Molecules, 2022).
Where a SMILES comes first, the peptide text is derived from it. [ ]: non-standard residue; d: D form. The star is where a group is joined. DOTA = O=C(O)CN1CCN(CC(=O)O)CCN(CC(=O)*)CCN(CC(=O)O)CC1; 1Nal = N[C@@H](Cc1cccc2ccccc12)C(=O)O; NMeNle = CCCC[C@H](NC)C(=O)O

Assay: in vivo
Design: species or system BALB/c nude mice
Conditions: female, BALB/c nude, mouse, iv, total radioactivity
Procedure: Biodistribution studies were performed in accordance with the ethical standards of the institution and approved by the Austrian Ministry of Science (BMWFW-66.011/0072-V/3b/2019). In vivo studies were carried out in 6–8-week-old female BALB/c nude mice xenografted with A431-CCK2R/A431-mock cells (Charles River, Sulzfeld, Germany; n = 4). For the induction of the tumor xenografts, 150 μL DMEM containing 2 × 10^6 A431-CCK2R and A431-mock cells were injected subcutaneously into the right and left flanks of each mouse. Tumors were allowed to grow for 10–14 days. [^68Ga]Ga-DOTA-MGS8 used in animal studies was prepared as described in the Supplementary Materials (page 2, Figures S1 and S2). To remove any hydrophilic impurities after radiolabeling, the solution was passed through a Sep-Pak® Light C18 cartridge (Waters, Milford, MA) preconditioned with ethanol and physiological saline. [^68Ga]Ga-DOTA-MGS8 was then eluted with 600 µL of a mixture of ethanol and PBS (2/1; v/v) followed by 1100 µL PBS. To this solution, 20 µL of 0.01 M bicarbonate was added for pH adjustment. The final injection solution was diluted with PBS containing 0.5% bovine serum albumin (BSA) to reach an injected radioactivity of ~200 kBq and a total injected peptide amount of ~30 pmol. [^68Ga]Ga-DOTA-MGS8 was administered in 150 µL via a lateral tail vein. The mice were euthanized 1 h p.i. by cervical spine dislocation. […] All organs, including blood and the remaining body, were weighed and their radioactivity was measured using the gamma-counter together with a standard. For the determination of radioactivity in the different tissues, a standard of 10 µL of the injection solution, as well as a 50 µL aliquot of a 1:10 and 1:50 dilution of the injection solution, were measured along with samples taken from the animals. […] The volume injected to each mouse was determined by calculating the difference in weight of the syringe before and after injection. Results were expressed as the percentage of injected activity per gram tissue (% IA/g).

tissue to tissue ratio at 1 h (Tumor-to-blood ratio): 13.4 ± 1.77 | tissue to tissue ratio at 1 h (Tumor-to-kidney ratio): 4.41 ± 0.4 | tissue to tissue ratio at 1 h (Tumor-to-stomach ratio): 11 ± 2.05
SMILES: CCCC[C@@H](C(=O)N[C@@H](CC(=O)O)C(=O)N[C@@H](Cc1cccc2ccccc12)C(N)=O)N(C)C(=O)[C@H](Cc1c[nH]c2ccccc12)NC(=O)CNC(=O)[C@H](Cc1ccc(O)cc1)NC(=O)[C@@H]1CCCN1C(=O)[C@@H](CCC(=O)O)NC(=O)CN1CCN(CC(=O)O)CCN(CC(=O)O)CCN(CC(=O)O)CC1 [[^68Ga]Ga-DOTA-MGS8, metal not drawn] ({DOTA}-[dE]PYGW[NMeNle]D[1Nal]-NH2)
